The text below walks through data of ChEMBL document CHEMBL1649511, “Reduction of amphotericin B-induced renal tubular apoptosis by N-acetylcysteine” (2009).

Common to all, as to assay type: functional
Design in all cases: scale not given: the % may be the effect or the level left
Holding throughout (details): route intraperitoneal

The subject of experiment [1] is Rattus norvegicus. The experiment is described as follows: Inhibition of amphotericin B-induced renal tubular apoptosis in Sprague-Dawley rat assessed as apoptotic index at 60 mg/kg, ip BID measured post last dose.
The subject of experiment [2] is Rattus norvegicus. Put plainly: Inhibition of amphotericin B-induced renal tubular apoptosis in Sprague-Dawley rat assessed as apoptotic index at 120 mg/kg, ip BID measured post last dose.
In experiment [3] the test system is Rattus norvegicus. Put plainly: Inhibition of amphotericin B-induced renal tubular apoptosis in Sprague-Dawley rat assessed as apoptotic index at 30 mg/kg, ip BID measured post last dose.

Take `CC(=O)N[C@@H](CS)C(=O)O` [ACETYLCYSTEINE]: the Activity in the experiment with Rattus norvegicus [1] was found to be 23.6%; in the experiment with Rattus norvegicus [2], 23.5%; in the experiment on Rattus norvegicus [3], 27.4%.
